Test results from patent US9526720B2, “Modulators of hepatic lipoprotein metabolism” (The Broad Institute, Inc., priority 2012, dated 2016).
Where two headings read alike, the source gives them in different places.

Assays:
ApoB = assay: ELISA of secreted ApoB in HepG2 cells; format: cell-based, human; design: key to ELISA 24 Hr (EC50 uM) ApoB decrease: A: EC50 between 0.0000001 μM≦0.5 μM; B: EC50 between 0.51 μM≦1.0 μM; EC50 between 1.1 μM≦2.0 μM; D: EC50 between 2.1 μM≦5.0 μM; EC50 between 5.1 μM≦10 μM; F: EC50>10 μM; NC: No change; settings: for EC50: Homo sapiens, HepG2, 24 h, read-out: ELISA 24 Hr (EC50 uM) ApoB decrease
Protocol: (§1) Additional secondary assays were performed in HepG2 cells to further characterize the cellular response to treatment with select confirmed TRIB1 inducer hits. The results of the ELISA, CTG, and qPCR secondary assays are summarized in Table B. For all secondary assays, the experiments were performed using powders of freshly purified compounds.
(§2) To further characterize the relationship of TRIB1 induction and PCSK9 reduction, ELISAs were performed to measure the levels of secreted ApoB, PCSK9, and LDLR. […] As predicted treatment with TRIB1 inducer hits caused a decrease in ApoB levels detected by ELISA. In parallel effort, 3200 BIOA and NATP compounds were screened for PCSK9 expression inhibitors. Hits were defined as inducing greater than 3-fold downregulation of PCSK9, and 3.8% of the screened compounds were confirmed as hits. […] In further experiments, a strong correlation was confirmed between TRIB1 induction and PCSK9 repression in DOS Collection hits. ELISA analysis confirmed that treatment with TRIB1 inducers reduced the PCSK9 protein levels. LDLR protein levels were also analyzed by ELISA to determine whether compounds that modulate both TRIB1 and PCSK9 had any effect on LDLR protein levels.

LDLR [1] = assay: ELISA of LDLR protein in HepG2 cells; format: cell-based, human; settings: Homo sapiens, HepG2, 24 h; read-out: ELISA 24 Hr (EC50 uM) LDLR increase
Protocol: as §1, §2

PCSK9 [2] = assay: ELISA of secreted PCSK9 protein in HepG2 cells; format: cell-based, human; settings: Homo sapiens, HepG2, 24 h; read-out: ELISA 24 Hr (EC50 uM) PCSK9 decrease
Protocol: as §1, §2

PCSK9 [3] = assay: qPCR PCSK9 expression in HepG2 cells; format: cell-based, human; settings: Homo sapiens, HepG2, 24 h; read-out: qPCR 24 Hr (EC50 uM) PCSK9 down-regulation
Protocol: (§3) In the primary screen, HepG2 cells were plated in 384-well plates at 2000 cells per well and incubated for 20 hours with each compound in duplicate at 10 microM concentration. Then RNA was isolated, reverse-transcribed to cDNA, and stored at −80° C. Expression levels of TRIB1 and other target genes, such as SORT1 and PCSK9, were determined by quantitative PCR. Relative gene expression level was normalized to expression of the housekeeping gene, GAPDH. A “hit” was defined as those compounds that caused a greater than 2-fold increase in relative target gene expression when normalized to GAPDH expression, compared to DMSO-treated control. Using these criteria, 130 hits were identified for TRIB1 (0.8% hit rate).
(§4) Further analysis of the expression levels of various proteins in the cholesterol and triglyceride biosynthetic pathways in response to TRIB1 inducer treatment was performed. In particular, transcript levels of additional lipoprotein metabolism pathway proteins SCAP, SREBF1, SREBF2, HMGCR, HMGCS, SCD1, FASN and MTTP were assessed by qPCR, along with TRIB1, LDLR, and PCSK9. The gene expression profile for the same subset of genes was also assessed after treatment with the statin atorvastatin (Lipitor), commonly used in therapy for hypercholesterolemia and other cardiovascular diseases.
(§5) The kinetics of the modulation of TRIB1, LDLR, PCSK9 and MTTP gene expression after treatment by select TRIB1 inducer compounds was monitored by qPCR analysis (FIG. 4). RNA was extracted from cells at various timepoints over 28 hours of treatment (0, 2, 4, 6, 8, 24, 28 hours). Specifically, compounds 12a and 14a induced transcriptional responses over time similar to those produced by berberine, a plant alkaloid used in Chinese medicine. […] Both compound 12a and compound 14a induce TRIB1 and LDLR and repress PCSK9 and MTTP expression with similar kinetics and similar fold change as berberine Importantly, both compounds induce these gene expression changes at much lower concentrations than berberine. […] This increased potency indicates the potential therapeutic efficacy of such compounds for treatment of cardiovascular diseases, particularly hypercholesterolemia and related conditions.

LDLR [4] = assay: qPCR LDLR expression in HepG2 cells; format: cell-based, human; settings: Homo sapiens, HepG2, 6 h; read-out: qPCR 6Hr (EC50 uM) LDLR up-regulation
Protocol: as §3, §4, §5

TRIB1 = assay: qPCR TRIB1 expression in HepG2 cells; format: cell-based; settings: Homo sapiens
[5] = HepG2, 6 h, read-out: qPCR 6Hr (EC50 uM) TRIB1 up-regulation
[6] = HepG2, induction of TRIB1 and LDLR transcript levels, read-out: half maximal effective concentration (EC50)

Row | ELISA 24 Hr (EC50 uM) ApoB decrease (ApoB) | EC50 (LDLR [1]) [µM] | EC50 (PCSK9 [2]) [µM] | EC50 (PCSK9 [3]) [µM] | EC50 (LDLR [4]) [µM] | EC50 (TRIB1; [5]) [µM] | EC50 (TRIB1; [6]) [µM] | EC50 (ApoB) [µM] | Compound
1 | NC | 1.1 to 2 | 2.1 to 5 | 1.1 to 2 | 2.1 to 5 | 2.1 to 5 | – | – | CN(C)C(=O)c1ccc(-c2ccc([C@H]3[C@@H](C#N)N(C(=O)C4CCC4)[C@@H]3CO)cc2)cc1 [Compound 22a]
2 | – | – | – | – | – | – | < 1 | – | CN1C(=O)c2cc(NC(=O)Nc3ccccc3F)ccc2OC[C@@H]2O[C@H](CC(=O)NCc3ccc(-c4ccccc4)cc3)CC[C@@H]21 [Compound 15a]
3 | – | 2.1 to 5 | 0.51 to 1 | 0.51 to 1 | 1.1 to 2 | 1.1 to 2 | – | 0.51 to 1 | CN(C)C(=O)c1ccc(-c2ccc([C@H]3[C@@H](C#N)N(C(=O)C4CCC4)[C@H]3CO)cc2)cc1 [Compound 18a]
4 | – | 1.1 to 2 | – | – | 0.51 to 1 | 0.51 to 1 | < 1 | – | CN(C)C(=O)c1ccc(-c2ccc([C@H]3[C@@H](C#N)N(C(=O)C4CCCCC4)[C@H]3CO)cc2)cc1 [Compound 17a]
5 | – | – | – | – | – | – | < 1 | – | COCC(=O)Nc1ccc2c(c1)C(=O)N(C)[C@H]1CC[C@@H](CC(=O)NC3Cc4ccccc4C3)O[C@H]1CO2 [Compound 16a]
6 | – | 5.1 to 10 | 1.1 to 2 | 0.51 to 1 | 5.1 to 10 | 2.1 to 5 | – | > 10 | N#C[C@@H]1[C@H](c2ccc(-c3ccccc3F)cc2)[C@H](CO)N1C(=O)C1CCC1 [Compound 21a]
7 | NC | 5.1 to 10 | 2.1 to 5 | – | 2.1 to 5 | 5.1 to 10 | – | – | N#C[C@@H]1[C@H](c2ccc(-c3cccc(F)c3)cc2)[C@@H](CO)N1C(=O)c1cccnc1 [Compound 24a]
